Our source for the GI50 and TGI values is PubChem BioAssay (NCI).

Test systems include CAKI-1 renal; CCRF-CEM leukemia; COLO 205 colon; HCT-116 colon; KM12 colon; MCF7 breast; RXF 393 renal; SR leukemia; TK-10 renal; UACC-257 melanoma.
Common to all, as to test: growth of human tumour cells (NCI), 48 h

Each structure is given as a SMILES string. Where “and” joins values, the source holds several entries; their conditions need not be identical. Equal entries are not always repeated.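 Values below derive from 48-hour exposures of cells grown in 96-well plates, with endpoints linearly interpolated between the two concentrations bracketing the appropriate inhibition level. GI50 marks 50% less growth. At the TGI there is no net growth.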 Bounds are passed on as bounds.

`C[C@@H]1C[C@@H]([C@H](O)CC2CC(=O)NC(=O)C2)C(=O)[C@@H](C)C1`: the GI50 in the assay on CAKI-1 renal was 0.188 µM; with CCRF-CEM leukemia, 0.0958 µM; in the assay with COLO 205 colon, 0.224 µM; in the assay on HCT-116 colon, 0.197 µM; in the assay on KM12 colon, 0.215 µM; in the assay with MCF7 breast it was 0.216 µM. Besides, the GI50 was 0.135 µM in the assay with RXF 393 renal, 0.28 µM with SR leukemia, 0.22 µM in the assay with TK-10 renal and 0.248 µM in the assay with UACC-257 melanoma. Moreover, the TGI is 5.17 µM and 1.83 µM in the assay on CAKI-1 renal; 1.15 µM and 0.406 µM in the assay with CCRF-CEM leukemia; 2 µM and 1.47 µM with COLO 205 colon; 4.35 µM and 1.42 µM with HCT-116 colon; 7.15 µM in the assay with MCF7 breast; 1.48 µM and 0.462 µM with RXF 393 renal. The TGI in the assay on TK-10 renal is 2.39 µM and 1.01 µM; in the assay with UACC-257 melanoma, 1.65 µM and 1.03 µM.
Regarding `COc1ccc(-c2ccc(C3CC(c4ccccc4)=NN3)o2)c([N+](=O)[O-])c1` (configuration not stated), the GI50 is 34.4 µM with CAKI-1 renal; 23.2 µM in the assay on CCRF-CEM leukemia; 52.9 µM in the assay on COLO 205 colon; 33.5 µM in the assay with HCT-116 colon; 27.3 µM with KM12 colon; 31.8 µM in the assay with MCF7 breast. Also, the GI50 is 40 µM in the assay on RXF 393 renal, 30.3 µM in the assay with SR leukemia and 22.1 µM with TK-10 renal. In addition, the TGI with CAKI-1 renal is > 100 µM; with CCRF-CEM leukemia, 72.2 µM; in the assay on COLO 205 colon, > 100 µM; in the assay with HCT-116 colon, > 100 µM; with KM12 colon, > 100 µM; in the assay with MCF7 breast, > 100 µM. The TGI in the assay with RXF 393 renal was > 100 µM; with SR leukemia it was 87.9 µM; with TK-10 renal, 63.8 µM.
Regarding `N=C1CCCC1C(=S)SCCC(N)=O` (configuration not stated), the TGI in the assay with CAKI-1 renal, with CCRF-CEM leukemia, in the assay with COLO 205 colon, with HCT-116 colon, in the assay with KM12 colon and in the assay on MCF7 breast was > 100 µM each time. The TGI with RXF 393 renal, with SR leukemia, in the assay on TK-10 renal and in the assay with UACC-257 melanoma was > 100 µM in each case.
For `O=C1c2cccc3cccc(c23)C(=O)N1CCCCCN1CCN(CCN=c2cc3n(-c4ccc(Cl)cc4)c4ccccc4nc-3cc2Nc2ccc(Cl)cc2)CC1`, the GI50 was 6.33 µM with CAKI-1 renal; 7.38 µM in the assay with CCRF-CEM leukemia; 2.38 µM in the assay on COLO 205 colon; 7.79 µM with HCT-116 colon; 11.9 µM with KM12 colon; 8.24 µM with MCF7 breast. Moreover, the GI50 is 11.2 µM with RXF 393 renal, 7.54 µM in the assay on SR leukemia, 25 µM with TK-10 renal and 13.7 µM in the assay with UACC-257 melanoma. In addition, the TGI with CAKI-1 renal was 20.5 µM; with CCRF-CEM leukemia it was 25.2 µM; with COLO 205 colon, > 50 µM; in the assay with HCT-116 colon, 17.5 µM; with KM12 colon, 46.3 µM; in the assay on MCF7 breast, 38.4 µM. For the same compound, the TGI in the assay with RXF 393 renal is > 50 µM; in the assay on SR leukemia, 25.4 µM; in the assay with TK-10 renal, > 50 µM; in the assay with UACC-257 melanoma it was 31.1 µM.
Turning to `COc1cc(/C=N/NC(=O)c2cnn3c2NC(c2ccccc2)C3)ccc1OC1CCCC1` (configuration not stated), the GI50 in the assay on CAKI-1 renal was 0.556 µM; with CCRF-CEM leukemia it was 0.691 µM; in the assay on COLO 205 colon, 0.59 µM; in the assay on HCT-116 colon, 0.518 µM; in the assay on KM12 colon it was 0.39 µM; in the assay with MCF7 breast, 0.373 µM. The GI50 in the assay with RXF 393 renal is 0.357 µM; with SR leukemia, 0.252 µM; in the assay on TK-10 renal, 4.06 µM; with UACC-257 melanoma, 1.45 µM. Further, the TGI in the assay on CAKI-1 renal came out at 5.01 µM; in the assay on CCRF-CEM leukemia, 10.8 µM; with COLO 205 colon, 7.53 µM; in the assay on HCT-116 colon, 3.46 µM; with KM12 colon it was 4.46 µM; in the assay on MCF7 breast it was 4.07 µM. In addition, the TGI with RXF 393 renal was 1.47 µM; in the assay on SR leukemia, 3.78 µM; in the assay with TK-10 renal, 16.3 µM; in the assay on UACC-257 melanoma it was 12 µM.
For `Cc1nc2c(Br)cc(Br)cc2c(=O)n1-c1ccccc1NC1OC(CO)C(O)C(O)C1O` (configuration not stated), the TGI with CAKI-1 renal, in the assay on CCRF-CEM leukemia, in the assay on COLO 205 colon, in the assay with HCT-116 colon, in the assay on KM12 colon and in the assay on MCF7 breast was > 100 µM each time. The TGI in the assay on RXF 393 renal, with SR leukemia, in the assay with TK-10 renal and with UACC-257 melanoma was > 100 µM throughout. In addition, the GI50 in the assay with SR leukemia is > 100 µM and 44.8 µM.
Turning to `Cn1c(I)c(C#C[Si](C)(C)C)c(=O)n(C(=O)c2ccccc2)c1=O`, the GI50 is 2.56 µM in the assay with CAKI-1 renal; 0.432 µM in the assay with CCRF-CEM leukemia; 1.55 µM in the assay on COLO 205 colon; 1.74 µM with HCT-116 colon; 12.1 µM in the assay with KM12 colon; 1.92 µM with MCF7 breast. The GI50 was 1.64 µM in the assay on RXF 393 renal, 1.89 µM with SR leukemia, 3.81 µM in the assay with TK-10 renal and 11.6 µM in the assay with UACC-257 melanoma. Moreover, the TGI with CAKI-1 renal was found to be 6.85 µM; in the assay on COLO 205 colon it was 3.2 µM; in the assay on HCT-116 colon, 3.44 µM; with KM12 colon, 27.8 µM; in the assay with MCF7 breast, 5.65 µM; with RXF 393 renal, 3.14 µM. Moreover, the TGI was found to be 14 µM in the assay on TK-10 renal and 24.6 µM with UACC-257 melanoma.
Consider `COC(=O)C(C(=O)C(=O)Nc1c(C)cccc1C(C)(C)C)c1nc2ccc(Cl)cc2[nH]c1=O` (configuration not stated), for which the TGI in the assay on CAKI-1 renal, in the assay on CCRF-CEM leukemia, in the assay with HCT-116 colon, in the assay with KM12 colon, in the assay on MCF7 breast and in the assay on RXF 393 renal was > 100 µM each time. The TGI in the assay on SR leukemia, in the assay on TK-10 renal and in the assay on UACC-257 melanoma was > 100 µM in each case.
Regarding `CSc1nc(Nc2cccc(NC(=O)CCl)c2)c(C#N)c(-c2cccc([N+](=O)[O-])c2)n1`, the GI50 was 2.12 µM in the assay on CAKI-1 renal; 0.34 µM with CCRF-CEM leukemia; 1.82 µM in the assay with COLO 205 colon; 1.93 µM in the assay on KM12 colon; 0.74 µM in the assay with MCF7 breast; 1.54 µM with RXF 393 renal. Also, the GI50 is 0.387 µM with SR leukemia, 4.2 µM with TK-10 renal and 2.18 µM with UACC-257 melanoma. In addition, the TGI with CAKI-1 renal was 10.4 µM; in the assay on CCRF-CEM leukemia, > 100 µM; with COLO 205 colon it was 3.54 µM; with KM12 colon, 3.92 µM; in the assay on MCF7 breast it was 2.44 µM; in the assay on RXF 393 renal, 3.22 µM. Also, the TGI in the assay on SR leukemia is > 100 µM; in the assay with TK-10 renal, 10.9 µM; in the assay on UACC-257 melanoma, 5.2 µM.
